“Also recorded” adds a separate entry of the source. Where a name gives a salt, the structure may show the parent alone. Read-outs that look alike come from different tables or passages of the source.
What was measured:
[1] = test system: mouse leukemias; details: in vivo; cited from earlier work
[2] = overall toxicity in tumor-bearing mice (Example 7); format: in vivo
From the text: Another important feature of the method provided by the present invention relates to the relatively low or no apparent overall toxicity of the camptothecin compounds administered in accordance herein. Overall toxicity can be judged using various criteria. For example, loss of body weight in a subject over 10% of the initially recorded body weight (i.e., before treatment) can be considered as one sign of toxicity. In addition, loss of overall mobility and activity and signs of diarrhea or cystitis in a subject can also be interpreted as evidence of toxicity. In one of the examples which follow, the overall toxicity of the camptothecin compounds was evaluated.
The overall toxicity of the colon tumor-inhibiting camptothecin compounds was next to be evaluated at various dosages. The overall toxicity of 9-amino-20(RS)-camptothecin, 10,11-methylenedioxy-camptothecin and the sodium salt of 10,11-methylenedioxy-camptothecin was evaluated in this example as follows: tumor fragments were implanted under the skin of 5-6 mice in each group beginning on day 0. The mice were injected with one of the compounds beginning on day 7 after visible signs that malignant growth of the implanted tumor had occurred. The injections of the compound were given at predetermined doses of 10 or 12.5 mg/kg of body weight per week for a total of 3-6 weeks. Injections were daily or given two times per week. The body weights of the controls (mice with tumors, injected with placebo) and that of the drug-treated mice were taken two times each week and recorded. Overall toxicity was determined in the following way: loss of body weight after treatment in a subject of more than 10% over the initial body weight of the subject recorded at the beginning of the experiment, was considered a sign of toxicity. The mice were also monitored for their ability to regain the lost body weight. Regaining entirely its lost body weight would therefore be a sign of low toxicity in a subject. In addition, mice were monitored for their overall mobility and activity as well as for signs of diarrhea or cystitis. Mobility/activity was judged on a sliding scale of 1 to 5. That is, a score of 1 indicated good mobility/activity and a score of 5 indicated poor mobility/activity. Diarrhea and cystitis were judged on a plus/minus basis.

[3] = test system: CASE cell line; assay: CASE human colon cancer xenograft in immunodeficient mice (Examples 3, 4, 6); format: in vivo, human (xenograft in immunodeficient NIH-1 mice)
From the text: (§1) In these four examples, three xenograft lines of human colon cancer were selected to test the effectiveness of various drugs or compounds in treating human colon cancer. These xenograft lines included the following: (1) A moderate-to-poorly differentiated human colon cancer HT-29; (2) poorly differentiated colon cancer lines designated CASE; and (3) SW48. Liebowitz, A. et al., Cancer Res. 36:4562 (1976); and Fogh, J., et al., Human Tumor Cells […], J. Fogh, ed. Plenum Press, New York, pp. 115-159 (1975). The HT-29, CASE and SW48 cell lines were implanted into immunodeficient NIH-1 mice. Each control or drug-treated group included 6 males. Tumor fragments were implanted on day 0. For each implant, 50 mg of wet weight finely minced tumor tissue in 0.5 ml EMEM (Gibco, Grand Island, N.Y.) was injected under the skin over the right dorsal chest region. The drugs were formulated in Tween 80:0.15 NaCl and injected subcutaneously, with the exception of doxorubicin, which was injected intravenously. The treatment started on day 7 and continued 2x/week for 5-6 weeks. Drug doses were based on an established median toxic dose for the schedule applied. Controls were treated with the solvent only. The tumors were measured in three dimensions with a caliper, and tumor volume calculated. The care and treatment of experimental mice was in accordance with institutional guidelines.
In Example 3, the CASE cell line was employed.
Example 4 illustrates the results of an experiment in which a second course of treatment followed a first course of treatment. On day 51 after tumor implantation, mice with CASE tumors and minimal disease received the second course of therapy. These mice received a total of 14 injections (doses) of 12.5 mg/kg body weight/dose (FIG. 4).
(§2) Daily injections or 2 injections per week of 10,11-methylenedioxy-20(RS)-camptothecin (total doses 50-70 mg/kg of body weight) stopped the growth of day-7 CASE tumors for a period of 4-6 weeks in 6/6 mice. Five injections of 10,11-methylenedioxy-20(RS)-camptothecin sodium salt (10 mg/kg body weight/dose) stopped the growth of day-7 CASE tumors in 6/6 mice for a period of 4 weeks. Both drugs inhibited at 30 mg/kg body weight (total dose) the growth of metastases of human colon cancer in the liver of immunodeficient mice, and increased the survival of such mice by ~100% (from average of 23 to 46 days).

[4] = test system: subcutaneous tumors; format: in vivo, mice
[5] = test system: metastases of human colon cancer in the liver; assay: metastases of human colon cancer in the liver of immunodeficient mice (Example 6); format: in vivo; details: 30 mg/kg body weight (total dose); for increase of survival: from average of 23 days; for average survival: increased from 23 days
Description: as §2

[6] = test system: topoisomerase I; assay: topoisomerase I-directed screens; format: biochemical
[7] = test system: advanced incurable cancers; details: cited from earlier work
[8] = test system: human colon cancer HT-29; assay: HT-29 human colon cancer xenograft in immunodeficient mice (Example 2); format: in vivo, human (xenograft in immunodeficient NIH-1 mice)
From the text: as §1
In FIG. 2, 9-AC represents 9-amino-20(RS)-camptothecin. The means of tumor volumes in cubic centimeters (cm^3) were plotted against time; S.D. (standard deviation) of the means was less than 15% of the value.

[9] = test system: colon cancer; details: cited from earlier work
[10] = test system: SW48 human colon cancer cell line; assay: SW48 human colon cancer xenograft in immunodeficient mice (Example 5); format: in vivo, human (xenograft in immunodeficient NIH-1 mice)
From the text: as §1
In Example 5, a course of treatment was carried out with the SW48 human colon cancer cell line. This tumor line is extremely unresponsive to treatment. Liebowitz, A., et al., Cancer Res. 36:4562 (1976); and Fogh, J., et al., Human Tumor Cells in Vitro, J. Fogh, ed. Plenum Press, New York, pp. 115-159 (1975).
It should be noted that the first course of treatments of the CASE and SW48 lines, described above, started with well-established tumors, averaging 0.2-0.25 cm^3 in volume. In Example 5, day=35 SW48 tumors (average size 2.5 cm^3), were selected for the first treatment with 9-amino-20(RS)-camptothecin. […]

[11] = twice/week treatment, total dose 50 mg/kg
[12] = daily or 2 injections per week, total doses 50-70 mg/kg
[13] = five injections, 10 mg/kg body weight/dose
[14] = daily treatment, total dose 25 mg/kg
[15] = patients with metastases to the liver
[16] = first course, 12.5 mg/kg body weight

CC[C@@]1(O)C(=O)OCc2c1cc1n(c2=O)Cc2cc3ccccc3nc2-1 [20(S)-camptothecin, reference compound]
activity against mouse leukemias [1]: effective against mouse leukemias
toxic deaths ([2]; 50 mg/kg body weight): toxic deaths of all animals
Overall Toxicity: body weight loss ([2]; twice/week treatment, total dose 28 mg/kg): > 15%
Overall Toxicity [2, 11]: animal deaths
Overall Toxicity ([2]; twice/week treatment, total dose 70 mg/kg): animal deaths

CCC1(O)C(=O)OCc2c1cc1n(c2=O)Cc2cc3cc4c(cc3nc2-1)OCO4 (racemic) [10,11-methylenedioxy-20(RS)-camptothecin]
mice in which growth of day-7 tumors stopped [3, 12]: 6/6
period for which growth of day-7 tumors stopped [3, 12]: 4-6 weeks
therapeutic response (in words) ([4]; 100 mg/kg, two times per week): complete reduction of subcutaneous tumors
therapeutic response (in words) ([4]; 100 mg/kg, two times per week, listed as 10,11-methylenedioxy-20(RS) camptothecin): completely reducing subcutaneous tumors
growth of metastases of human colon cancer in the liver [5]: inhibited
increase of survival [5]: ~ 100%
average survival [5]: 46 days
decrease of body weight ([2]; 70 mg/kg body weight (total dose)): less than 10%
Overall Toxicity ([2]; twice/week treatment, total dose 100 mg/kg, 100 mg/kg): no overall toxicity
Overall Toxicity ([2]; twice/week treatment, total dose 100 mg/kg, listed as 10,11-Methylenedioxy-20(RS), 100 mg/kg): none
Overall Toxicity ([2]; twice/week treatment, total dose 100 mg/kg, listed as 10,11-methylenedioxy-20(RS) camptothecin, 100 mg/kg): no overall toxicity
activity in topoisomerase I-directed screens [6]: highly active

CCC(O)(C(=O)O)c1cc2n(c(=O)c1CO)Cc1cc3cc4c(cc3nc1-2)OCO4 (racemic) [sodium salt of 10,11-methylenedioxy-20(RS)-camptothecin]
mice in which growth of day-7 tumors stopped [3, 13]: 6/6
period for which growth of day-7 tumors stopped [3, 13]: 4 weeks
growth of metastases of human colon cancer in the liver [5]: inhibited
increase of survival [5]: ~ 100%
average survival [5]: 46 days
toxic deaths ([2]; 62.5 mg/kg body weight): toxic deaths of all animals
Overall Toxicity [2, 14]: animal deaths
Overall Toxicity: body weight loss [2, 14]: < 10%
Overall Toxicity ([2]; daily treatment, total dose 200 mg/kg): animal deaths
Overall Toxicity: body weight loss [2, 11]: 20%
Overall Toxicity ([2]; twice/week treatment, total dose 62.5 mg/kg): animal deaths
activity in topoisomerase I-directed screens [6]: highly active

CC[C@@](O)(C(=O)O)c1cc2n(c(=O)c1CO)Cc1cc3ccccc3nc1-2 [sodium salt of 20(S)-camptothecin]
limiting factor (toxicity) ([7]; patients with various cancers): Leukopenia
most prominent non-hematological complication ([7]; patients with various cancers): Hemorrhagic cystitis
gastrointestinal toxicity or sterile hemorrhagic cystitis observed among patients ([7]; patients): observed
clinical response ([7]; several patients, some with colorectal cancer, unresponsive to previous treatments): temporary relief of the disease
median survival (in words) ([7]; several patients, some with colorectal cancer): marginal prolongation of median survival

CN(Cc1cnc2nc(N)nc(N)c2n1)c1ccc(C(=O)N[C@@H](CCC(=O)O)C(=O)O)cc1 [methotrexate, reference compound]
growth-retardation of tumor implants ([8]; 160 mg/kg body weight/dose): only marginal growth-retardation

O=c1[nH]cc(F)c(=O)[nH]1 [5-fluorouracil]
effectiveness in treating colon cancer ([9]; human, in vivo): only marginally effective
cases with temporary improvement [9, 15]: ≤ 25%
overall survival [9, 15]: not significantly affected
growth-retardation of tumor implants ([8]; 80 mg/kg of body weight/dose): only marginal growth-retardation

CCC1(O)C(=O)OCc2c1cc1n(c2=O)Cc2cc3cc(N)ccc3nc2-1 (racemic) [10-amino-20(RS)-camptothecin, reference compound]
toxic deaths ([2]; 25 mg/kg body weight): toxic deaths of all animals
Overall Toxicity: body weight loss ([2]; twice/week treatment, total dose 100 mg/kg): < 15%

CCC1(O)C(=O)OCc2c1cc1n(c2=O)Cc2cc3c(N)cccc3nc2-1 (racemic) [9-amino-20(RS)-camptothecin]
long-term tumor-free survival (in excess of 7 months) ([3]; CASE tumors, after second course): 7/8
mice with NED or minimal disease [3, 16]: 6/6
mice with NED ([3]; second course, total of 14 doses of 12.5 mg/kg): 5/6
mice with minimal disease ([3]; second course, total of 14 doses of 12.5 mg/kg, of 6 mice): the other had minimal disease
therapeutic response (in words) ([4]; mouse, in vivo): completely reducing subcutaneous tumors; also recorded: complete reduction of subcutaneous tumors
long-term tumor-free survival (in excess of 7 months) ([10]; after second course, 75 mg/kg total dose): 6/6
mice with NED or minimal disease [10, 16]: 6/6
reduction in the volume of the tumors (average) ([10]; first treatment of day 35 tumors (average 2.5 cm^3), 6 doses of 12.5 mg/kg, twice a week): 91%
gastrointestinal toxicity or sterile hemorrhagic cystitis ([2]; second course, 50-75 mg/kg): no signs
toxicity of second course of treatment ([2]; second course, 50-75 mg/kg body weight): more toxic than the first
Overall Toxicity ([2]; twice/week treatment, total dose 150 mg/kg, 150 mg/kg): no overall toxicity
Overall Toxicity ([2]; twice/week treatment, total dose 150 mg/kg, listed as 9-Amino-20(RS)-camptothecin, 150 mg/kg): none
Overall Toxicity: body weight loss ([2]; twice/week treatment, total dose 175 mg/kg (cumulative)): ≤ 20%
duration of remission (mean+S.D.) ([8]; 10 mg/kg body weight/dose): 62 ± 20 days
mice with no evidence of disease (NED) or minimal disease (tumor volume=0.1 cm^3) ([8]; 10 mg/kg/dose s.c., twice a week, 6 weeks): 5/6
duration of remission (mean+S.D.) ([8]; 12.5 mg/kg body weight/dose): 56 ± 15 days
mice with NED or minimal disease ([8]; 12.5 mg/kg body weight/dose): 6/6
reduction of tumor volume (average) ([8]; second course, average tumor size 8.3 cm^3, total dose 60 mg/kg): 45%

From patent publication US5225404A, “Methods of treating colon tumors with tumor-inhibiting camptothecin compounds” (New York University, priority 1989, dated 1993)
